Reference: patent US11179452B2, “Antigen specific multi epitope vaccines” (priority 2006, dated 2021)
No end group written: not given here.

Columns and labels:
Format in all cases: cell-based, human
[1] = system: PBL; assay: Proliferation of PBL, DC indirect presentation (peptide-pulsed autologous DC); conditions: for IS (as indicated in Table 12): two donors; for IS (SI of the peptides as indicated in Table 7): one out of five experiments; for IS (SI of the peptides as indicated in Table 7) / Optimal dose via DC: six donors; for Optimal dose via DC: optimal dose required for PBL activation; for Optimal dose via DC / Peak of Proliferation (Hours) via DC: average of 5 experiments; for Peak of Proliferation (Hours) via DC: visual inspection by light microscopy daily during 5 days
Description: (§1) Human PBMC were separated from buffy coat samples of naive donors using Ficoll UNI-SEPmaxi tube. Separated cells were suspended in RPMI medium supplemented with 10% FCS, L-Glutamine, Sodium Pyruvate, MEM-EAGLE non-essential amino-acids, HEPES and Gentamycin Sulphate (Bet-Haemek Industries, IL) and cultivated for 4 h at 37° C. in a culture dish (Corning 150 mm×25 mm). Adherent cells were collected and cultured for 7 days in serum free DCCM-1 medium supplemented with L-Glutamine, huIL-4 (1000 IU/ml) (Cytolab IL) and GM-CSF-80 ug/ml (Cytolab IL). On day seven floating cells were collected and loaded with 50 ug/ml of examined peptide for 18 h at 37° C.
(§2) Proliferation analysis was conducted in three different methods. In all three methods, plates were cultured for 3-5 days under visual control and then 0.5 […]Cu/well of 3[H] (Amersham) was added for additional culture of to 18 h at 37° C. In the last step, plates were harvested and the radioactive counts were measured in a □ counter. • 1. DC indirect presentation: In the first method, 100 µl of 2×10^6 thawed PBL were placed in U-shape Bottom 96 well plate (Nunc) with RPMI medium supplemented with 5% H AB serum, L-Glutamine, Sodium Pyruvate, MEM-EAGLE non-essential amino-acids, HEPES and Gentamycin. At the next stage 100 µl of 25×10^4 peptide-pulsed DC were added to each three wells of PBL and underwent proliferation analysis as described above. • 2. PBL direct presentation: In the 2nd method, 100 µl of 2×10^6 PBL were placed in Flat Bottom 96 well plates (Corning) and stimulated with different concentrations (0.05 ug/ml-2 ug/ml) of peptides. In the next step the cells underwent proliferation analysis as described above. • 3. PBMC direct presentation: In third method PNMC were used under similar conditions as described for the second method.
In the first set of experiments, the 21mer ImMucin, its different 9mer epitopes and other control epitopes (Table 3) were evaluated in proliferation assays with the aim of finding their optimal mode of presentation, stimulated dose as well as their peak of activity (time wise).
To evaluate the most efficient method for priming of PBLs with the different peptides, the following methods were compared:
a. In-direct presentation of the peptide via Autologues-pulsed DC
(§3) Five experiments were performed according to the protocol described in material and methods with buffy-coat enriched PBLs obtained from six different naive donors (obtained from the Israeli blood bank).

[2] = system: PBL; assay: Proliferation of PBL, direct presentation of peptide without APC; conditions: for Optimal dose Direct no APC: optimal dose required for PBL activation, six donors; for Optimal dose Direct no APC / Peak of Proliferation (Hours) Direct no APC: average of 5 experiments; for Peak of Proliferation (Hours) Direct no APC: visual inspection daily during 5 days
Description: In all three methods, plates were cultured for 3-5 days under visual control and then 0.5 □Cu/well of 3[H] (Amersham) was added for additional culture of to 18 h at 37° C. […] DC indirect presentation: In the first method, 100 µl of 2×10^6 thawed PBL were placed in U-shape Bottom 96 well plate (Nunc) with RPMI medium supplemented with 5% H AB serum, L-Glutamine, Sodium Pyruvate, MEM-EAGLE non-essential amino-acids, HEPES and Gentamycin. At the next stage 100 µl of 25×10^4 peptide-pulsed DC were added to each three wells of PBL and underwent proliferation analysis as described above. • 2. PBL direct presentation: In the 2nd method, 100 µl of 2×10^6 PBL were placed in Flat Bottom 96 well plates (Corning) and stimulated with different concentrations (0.05 ug/ml-2 ug/ml) of peptides. In the next step the cells underwent proliferation analysis as described above. • 3. PBMC direct presentation: In third method PNMC were used under similar conditions as described for the second method.
Direct presentation of peptides to PBL without any APC

[3] = system: PBL; assay: ELISA of cytokine secretion by PBL stimulated once with peptide-pulsed DC
Description: as §1
(§4) Cytokine release was studied during the culture of stimulated T-cells. The evaluated samples were collected from the T cell culture medium on day 2, 3, and 5 and stored until use at −20° C.
(§5) […] of the selected capture antibody (e.g. anti-Hu IFN-Gamma, or anti-Hu TNF-alfa or anti IL-2) were added to each well at the final concentration of 5 μg/ml in PBS. Plates were incubated for 2 h at R.T. or over night at 4° C. Next, […] of blocking solution were added for an incubation of 2 h at R.T. […] of evaluated samples were added in duplicate into 2 wells for 2 hours at RT. After 2 h of incubation at R.T plates were washed λ4 times in washing solution. In the next step, a Biotin-conjugated detection antibody (relevant to coated antibody) was added at a final concentration of 10 μg/ml in total volume of 100 μl for 1 h at R.T. Finally, 100 μl/well working dilution (1:10000 in Blocker solution) of Streptavidin-HRP were added to each well and incubated for 1 h at R.T.
(§6) Plates were washed λ6 times with PBS-Tween (0.4%) and 100 μl/well of TMB/E Solution (CHEMICON, Catalog #ES001) was added. The plates were then exposed until blue color appeared in the wells of the positive control and no color was detected in the blank wells. To stop the color reaction, 50 μl/well of 10% of Sulfuric acid was added. The plates were counted in ELISA-Reader using a 450 nm filter.

[4] = system: ImMucin specific T-cell subpopulation; assay: Proliferation of the ImMucin-specific T-cell subpopulation after three stimulations; conditions: one out of two experiments, four donors
From the text: (§7) Thawed PBLs underwent 1st stimulation with ImMucin pulsed Autologues DC at a ratio of 20:1 and cultured for 7 days in dedicated T cell Medium. T cell medium contained RPMI medium supplemented with 10% FCS, L-Glutamine, Sodium Pyruvate, MEM-EAGLE non-essential amino-acids, HEPES and Gentamycin Sulphate (Bet-Haemek Industries, IL) as well as with 50 IU/ml of recombinant IL-7 (Cytolab IL). For the second stimulation, PBL were transferred to adherent autologues ImMucin-pulsed PBMC and cultured for additional 5 days in T cell Medium. At the end of the 5 days, medium was partial replaced with fresh medium containing 1 ug/ml of ImMucin and 50 IU/ml IL-2 for a third stimulation of 48 h at 37° C. Following the last stimulation ImMucin T cell line was checked for immune activation properties.
as §2
(§8) For that purpose, an enriched ImMucin-specific T cell subpopulation was produced via repeated stimulation with ImMucin. The specificity of the subpopulation for ImMucin, as well as to the other VXL epitopes, was examined using proliferation assays, cytokine release assays, FACS analysis in which the percentage and type of cells enriched during the enrichment process was analyzed, and using a CTL assay against selected target cells.
(§9) For producing the specific T cell subpopulation PBL were stimulated three times for 7, 5 and 2 days with ImMucin presented via DC and PBMC. Following the 3rd stimulation the cells were evaluated against the different VXL epitopes.

[5] = system: T-Cell specific subpopulation (Clones); assay: ELISA of cytokine secretion by the T-cell specific subpopulation (clones) stimulated with peptides; conditions: two experiments, four donors
From the text: as §7, §4, §5, §6, §8, §9

[6] = system: PBMC; assay: Proliferation, direct presentation of peptide via PBMC (monocytes); conditions: for PBL Index of stimulation (SI) via PBMC: naive donors, representative of 5 experiments; for Peak of Proliferation (Hours) via PBMC: visual inspection daily during 5 days; for Peak of Proliferation (Hours) via PBMC / Optimal dose via PBMC: average of 5 experiments; for Optimal dose via PBMC: optimal dose required for PBL activation, six donors
Description: as §2
b. Direct presentation of the peptides via PBMC i.e. monocytes
as §3

[7] = system: lymphocytes from naive donors; assay: Proliferation assay, kinetics of lymphocyte activation as summarised in text (presentation mode not stated); conditions: summary of five experiments
Description: as §2
A different parameter for assessing the properties of ImMucin and the other VXL-peptide epitopes is by analyzing the time until a maximal peak of activity occurs and the optimal dose for maximal stimulation. Maximal peak of PBL activation is determined when <50% of the PBLs appear in clumps. In these experiments, the kinetic (time) in the proliferation of lymphocytes from the six naive donors stimulated at a fix dose of 0.05-1 ug/ml by ImMucin and other VXL-Peptides, was observed.

[8] = average of two healthy donors (Table 11)
[9] = peptide pulsed DC ratio 16:1, one out of two experiments, two donors (Table 12)
[10] = naive donors, CPM sample / CPM control, representative of 5 experiments
[11] = peptide DC ratio 16:1, one out of five experiments, six donors
[12] = naive donors, representative of 5 experiments

| Compound | PBL Index of stimulation (SI) via DC [1, 8] | PBL Index of stimulation (SI) Direct no APC [2, 8] | PBL Index of stimulation (SI) via DC [1, 10] | IS (SI of the peptides as indicated in Table 7) [1] | Optimal dose via DC [1] | Peak of Proliferation (Hours) via DC [1] | IFN-gamma [3, 11] | IS (Average) [4] | IS (Range) [4] | IL-2 % of clones [5] | IL-2 Range [5] | INF-gamma % of clones [5] | INF-gamma Range [5] | TNF-Alfa % of clones [5] | TNF-Alfa Range [5] | PBL Index of stimulation (SI) Direct no APC [2, 12] | Optimal dose Direct no APC [2] | Peak of Proliferation (Hours) Direct no APC [2] | PBL Index of stimulation (SI) via PBMC [6] | Peak of Proliferation (Hours) via PBMC [6] | further results |
| --- | --- | --- | --- | --- | --- | --- | --- | --- | --- | --- | --- | --- | --- | --- | --- | --- | --- | --- | --- | --- | --- |
| PADREAGVAA WTLKAAA (PADREAGVAAWTLKAAA) [VXL-14, reference compound] | 2.94 | 0 | – | – | – | – | – | – | – | – | – | – | – | – | – | – | – | – | – | – | – |
| MWATQGLAVALALSVLPGSRA (MWATQGLAVALALSVLPGSRA; listed as Homo sapiens) [VXL-101, signal peptide vaccine derived from ARMET] | 2.8 | 0 | – | – | – | – | – | – | – | – | – | – | – | – | – | – | – | – | – | – | PBL Index of stimulation (SI) via DC ([1]; average of two healthy donors (Table 11), listed as Armet): highest SI; IS (as indicated in Table 12) [1]: 2.8; IL-2 [3, 9]: 0 ng/mL; TNF-Alfa [3, 9]: 10.5 ng/mL |
| SPFFLLLLL [VXL-5, SPFFLLLLL] | – | – | 3.73 | 3.74 | 12.5-25 × × 10e6/well | 48-72 h^ | 0 ng/mL | 3.575 | 2.75-4.4 | 0% | 0 ng/mL | 33% | 2.75 to 5.5 ng/mL | 50% | 3.84 to 9.2 ng/mL | 0 | No Influence | No proliferation | 1.8 | 48-72 h^ | TNF-Alfa [3, 11]: 14.8 ng/mL; TNF-Alfa ([3]; peptide DC ratio 16:1, one out of five experiments, six donors, listed as VXL5): highest cytokine release |
| STPPVHNV [VXL-6, STPPVHNV, reference compound] | 1.44 | 0 | 1.76 | – | 12.5-25 × × 10e6/well | 120 h | 0 ng/mL | 1.125 | 1-1.25 | 0% | 0 ng/mL | 8.3% | 3.25 ng/mL | 50% | 7.56 to 11.4 ng/mL | 0 | No Influence | No proliferation | 1.53 | 120 h | IL-2 [3, 11]: 0 ng/mL; TNF-Alfa [3, 11]: 0 ng/mL; Optimal dose via PBMC [6]: 0.05 to 1 µg/mL |
| CSCC[C@H](N)C(=O)N[C@@H](CC(C)C)C(=O)N[C@@H](CC(C)C)C(=O)N[C@@H](C)C(=O)N[C@H](C(=O)N[C@@H](CC(C)C)C(=O)N[C@@H](Cc1ccc(O)cc1)C(=O)N[C@@H](CS)C(=O)N[C@@H](CC(C)C)C(=O)O)C(C)C [VXL-11, MLLAVLYCL, reference compound] | – | – | 1.65 | 1.65 | 12.5-25 × × 10e6/well | 96 h | 0 ng/mL | 1.14 | 1-1.28 | 0% | 0 ng/mL | 33% | 2.2 to 4.7 ng/mL | 0% | 0 ng/mL | 0 | No Influence | No proliferation | 1.25 | 96 h | IL-2 [3, 11]: 0 ng/mL; Optimal dose via PBMC [6]: 0.05 to 1 µg/mL |
| MAARAVFLAL SAQLLQA (MAARAVFLALSAQLLQA; listed as Homo sapiens) [VXL-102, signal peptide vaccine derived from melanoma associated TAA BAGE] | – | 0 | – | – | – | – | – | – | – | – | – | – | – | – | – | – | – | – | – | – | IS (as indicated in Table 12) [1]: 1.9; TNF-Alfa [3, 9]: 15.5 ng/mL |
| ALCRWGLLL [VXL-8, reference compound] | – | – | 1.75 | – | 12.5-25 × × 10e6/well | 120 h | – | – | – | – | – | – | – | – | – | 0 | No Influence | No proliferation | 1.5 | 120 h | peak of proliferation / maximum stimulation [7]: 120 h; Optimal dose via PBMC [6]: 0.05 to 1 µg/mL |
| TQSPFFLLL [VXL-4, TQSPFFLLL] | – | – | 3.74 | 3.4 | 12.5-25 × × 10e6/well | 72-96 h^ | 0 ng/mL | 2.665 | 2.4-2.93 | 33% | 3.8 to 8.7 ng/mL | 33% | 2.6 to 8.4 ng/mL | 58% | 3.1 to 9.8 ng/mL | 0 | No Influence | No proliferation | 1.45 | 72-96 h^ | IL-2 [3, 11]: 0 ng/mL; TNF-Alfa [3, 11]: 17.1 ng/mL; TNF-Alfa ([3]; peptide DC ratio 16:1, one out of five experiments, six donors, listed as VXL4): highest cytokine release; IL-2 Range ng/ml ([5]; listed as VXL4): high; INF-gamma Range ng/ml ([5]; listed as VXL4): high |
